# Laboratory results taken from US7501425B1, “Bicyclic pyrimidines and bicyclic 3,4-dihydropyprimidines as inhibitors of cellular proliferation” (Warner Lambert Company, priority 1999, dated 2009).
# Structures can show the parent of a compound that is named as a salt.
row,SMILES,melting point
1,"CCN(CC)CCOc1ccc(Nc2ncc3cnc(=O)n(C4CCCC4)c3n2)cc1C [Example 34, 1-Cyclopentyl-7-{3-methyl-4-[2-(diethylamino)ethoxy]-phenylamino}pyrimido[4,5-d]pyrimidin-2(1H)-one]",> 95 °C (dec.)
2,"O=C1NCc2cnc(Nc3ccc(N4CCC(CCCO)CC4)cc3)nc2N1C1CCCC1 [Example 20, 1-Cyclopentyl-7-{4-[4-(3-hydroxypropyl)piperidin-1-yl]phenylamino}-3,4-dihydro-pyrimido[4,5-d]pyrimidin-2(1H)-one]",> 230 °C
3,"CC(C)N1C(=O)NCc2cnc(Nc3ccc(N4CCC(N(C)C)CC4)cc3)nc21.O=C(O)C(F)(F)F [Example 24, 7-{4-[4-(Dimethylamino)piperidin-1-yl]phenylamino}-1-isopropyl-3,4-dihydro-pyrimido[4,5-d]pyrimidin-2(1H)-one; compound with trifluoroacetic acid]",215 to 217 °C (dec.)
4,"O=C1NCc2cnc(Nc3ccc(N4CCC(O)CC4)cc3)nc2N1C1CCCC1 [Example 15, 1-Cyclopentyl-7-[4-(4-hydroxypiperidin-1-yl)phenylamino]-3,4-dihydro-pyrimido [4,5-d]pyrimidin-2(1H)-one]",> 200 °C (dec.)
5,"CCN(CC)CCOc1ccc(Nc2ncc3c(n2)N(C2CCCC2)C(=O)NC3)cc1C [Example 13, 1-Cyclopentyl-7-{3-methyl-4-[2-(diethylamino)ethoxy]phenylamino}-3,4-dihydro-pyrimido[4,5-d]pyrimidin-2(1H)-one]",175 to 177 °C
6,"CC(C)N1C(=O)NCc2cnc(Nc3ccc(N4CCC(O)CC4)cc3)nc21 [Example 23, 7-[4-(4-Hydroxypiperidin-1-yl)phenylamino]-1-isopropyl-3,4-dihydro-pyrimido[4,5-d]pyrimidin-2(1H)-one]",> 120 °C (dec.)
7,"O=C1NCc2cnc(Nc3ccc(N4CCCC(O)C4)cc3)nc2N1C1CCCC1 (stereo not drawn) [Example 16, 1-Cyclopentyl-7-[4-(3-hydroxypiperidin-1-yl)phenylamino]-3,4-dihydro-pyrimido[4,5-d]pyrimidin-2(1H)-one]",> 200 °C (dec.)
8,"O=C1NCc2cnc(Nc3ccc(N4CCCCC4CO)cc3)nc2N1C1CCCC1 (stereo not drawn) [Example 19, 1-Cyclopentyl-7-[4-(2-hydroxymethylpiperidin-1-yl)phenylamino]-3,4-dihydro-pyrimido[4,5-d]pyrimidin-2(1H)-one]",220 to 221 °C
9,"O=C1NCc2cnc(Nc3ccc(N4CCCCC4)cc3)nc2N1C1CCCC1 [Example 10, 1-Cyclopentyl-7-[4-(piperidin-1-yl)phenylamino]-3,4-dihydro-pyrimido [4,5-d]pyrimidin-2(1H)-one]",254 to 277 °C (dec.)
10,"CN1CCN(c2ccc(Nc3ncc4c(n3)N(C3CCCC3)C(=O)NC4)cc2)CC1 [Example 11, 1-Cyclopentyl-7-[4-(4-methylpiperazin-1-yl)phenylamino]-3,4-dihydro-pyrimido[4,5-d]pyrimidin-2(1H)-one]",236 to 239 °C (dec.)
11,"CN1CCN(c2ccc(Nc3ncc4cnc(=O)n(C5CCCC5)c4n3)cc2)CC1 [Example 32, 1-Cyclopentyl-7-[4-(4-methylpiperazin-1-yl)phenylamino]pyrimido-[4,5-d]pyrimidin-2(1H)-one]",220 to 225 °C (dec.)
12,"CN1C(=O)NCc2cnc(Nc3ccc(N4CCC(N(C)C)CC4)cc3)nc21.O=C(O)C(F)(F)F [Example 30, 7-{4-[4-(Dimethylamino)piperidin-1-yl]phenylamino}-1-methyl-3,4-dihydro-pyrimido[4,5-d]pyrimidin-2(1H)-one; compound with trifluoroacetic acid]",190 to 191 °C (dec.)
13,"COc1ccc(Nc2ncc3c(n2)N(C2CCCC2)C(=O)NC3)cc1 [Example 9, 1-Cyclopentyl-7-(4-methoxyphenylamino)-3,4-dihydro-pyrimido[4,5-d]pyrimidin-2(1H)-one]",247 to 249 °C (dec.)
14,"CC1CN(c2ccc(Nc3ncc4c(n3)N(C3CCCC3)C(=O)NC4)cc2)CC(C)N1 (stereo not drawn) [Example 18, 1-Cyclopentyl-7-[4-(3,5-dimethylpiperazin-1-yl)phenylamino]-3,4-dihydro-pyrimido[4,5-d]pyrimidin-2(1H)-one]",> 200 °C (dec.)
15,"O=c1ncc2cnc(Nc3ccc(N4CCC(O)CC4)cc3)nc2n1C1CCCC1 [Example 33, 1-Cyclopentyl-7-[4-(4-hydroxypiperidin-1-yl)phenylamino]pyrimido[4,5-d]pyrimidin-2(1H)-one]",> 185 °C (dec.)
16,"CC(C)N1C(=O)NCc2cnc([S+](C)[O-])nc21 (stereo not drawn) [Example 6, 1-Isopropyl-7-methanesulfinyl-3,4-dihydro-pyrimido[4,5-d]pyrimidin-2(1H)-one]",218 to 219 °C (dec.)
17,"CC(C)N1C(=O)NCc2cnc(Nc3ccc(-n4cccn4)cc3)nc21.O=C(O)C(F)(F)F [Example 25, 1-Isopropyl-7-[4-(pyrazol-1-yl)phenylamino]-3,4-dihydro-pyrimido[4,5-d]pyrimidin-2(1H)-one; compound with trifluoroacetic acid]",249 to 252 °C (dec.)

# Further lines, results first:
row,melting point,SMILES
1,139 to 141 °C,"CCN(CC)CCOc1ccc(Nc2ncc3c(=O)n(Cc4ccc(OC)cc4)c(=O)n(C(C)C)c3n2)cc1 [Example 73, 7-[4-(2-Diethylaminoethoxy)phenylamino]-1-isopropyl-3-(4-methoxybenzyl)-1H-pyrimido[4,5-d]pyrimidine-2,4-dione]"
2,134 to 136 °C,"CCN1C(=O)N(c2cc(OC)cc(OC)c2)Cc2cnc(SC)nc21 (hydrate or solvate) [Example 50a, 3-(3,5-Dimethoxy-phenyl)-1-ethyl-7-methylsulfanyl-3,4-dihydro-pyrimido[4,5-d]pyrimidin-2(1H)-one]"
3,> 135 °C (dec.),"O=c1ncc2cnc(Nc3ccc(N4CCCC(O)C4)cc3)nc2n1C1CCCC1 (stereo not drawn) [Example 35, 1-Cyclopentyl-7-[4-(3-hydroxypiperidin-1-yl)phenylamino]pyrimido[4,5-d]-pyrimidin-2(1H)-one]"
4,> 100 °C (dec.),"CC(C)n1c(=O)ncc2cnc(Nc3ccc(N4CCC(N(C)C)CC4)cc3)nc21 [Example 41, 7-{4-[4-(Dimethylamino)piperidin-1-yl]phenylamino}-1-isopropyl-pyrimido[4,5-d]pyrimidin-2(1H)-one]"
5,148 to 150 °C (dec.),"COc1ccc(Cn2c(=O)c3cnc(-n4ccnc4)nc3n(C(C)C)c2=O)cc1 [Example 69, 7-(Imidazol-1-yl)-1-isopropyl-3-(4-methoxybenzyl)-1H-pyrimido[4,5-d]pyrimidine-2,4-dione]"
6,198 to 202 °C (dec.),"CN(C)C1CCN(c2ccc(Nc3ncc4cnc(=O)n(C)c4n3)cc2)CC1 [Example 46, 7-{4-[4-(Dimethylamino)piperidin-1-yl]phenylamino}-1-methyl-pyrimido[4,5-d]pyrimidin-2(1H)-one]"
7,220 to 222 °C,"COc1cc(OC)cc(N2Cc3cnc([S+](C)[O-])nc3NC2=O)c1 (stereo not drawn) [Example 51, 3-(3,5-Dimethoxy-phenyl)-7-methanesulfinyl-3,4-dihydro-pyrimido [4,5-d]pyrimidin-2(1H)-one]"
8,203 to 207 °C,"CCN(CC)CCCCNc1ncc2c(n1)NC(=O)N(c1cc(OC)cc(OC)c1)C2 [Example 52, 7-(4-Diethylamino-butylamino)-3-(3,5-dimethoxy-phenyl)-3,4-dihydro-pyrimido[4,5-d]pyrimidin-2(1H)-one]"
9,189 to 191 °C,"CCN1C(=O)N(c2cc(OC)cc(OC)c2Cl)Cc2cnc(SC)nc21 [Example 63, 3-(2-Chloro-3,5-dimethoxy-phenyl)-1-ethyl-7-methylsulfanyl-3,4-dihydro-pyrimido[4,5-d]pyrimidin-2(1H)-one]"
10,196.5 to 198.5 °C,"CCNc1nc(SC)ncc1C=Nc1cc(OC)cc(OC)c1Cl [Example 61, {5-[(2-Chloro-3,5-dimethoxy-phenylimino)-methyl]-2-methylsulfanyl-pyrimidin-4-yl}-ethyl-amine]"
11,> 135 °C (dec.),"O=c1ncc2cnc(Nc3ccc(-n4cccn4)cc3)nc2n1C1CCCC1 [Example 36, 1-Cyclopentyl-7-[4-(pyrazol-1-yl)phenylamino]pyrimido[4,5-d]pyrimidin-2(1H)-one]"
12,139 to 141 °C,"CCN(CC)CCOc1ccc(Nc2ncc3c(n2)N(CC)C(=O)N(c2cc(OC)cc(OC)c2)C3)cc1 (as salt: salt) (hydrate or solvate) [Example 53a, 7-[4-(2-Diethylamino-ethoxy)-phenylamino]-3-(3,5-dimethoxy-phenyl)-1-ethyl-3,4-dihydro-pyrimido[4,5-d]pyrimidin-2(1H)-one]"
13,83 to 85 °C,"CCN(CC)CCCCNc1ncc2c(n1)N(CC)C(=O)N(c1cc(OC)cc(OC)c1)C2 (hydrate or solvate) [Example 53, 7-(4-Diethylamino-butylamino)-3-(3,5-dimethoxy-phenyl)-1-ethyl-3,4-dihydro-pyrimido[4,5-d]pyrimidin-2(1H)-one]"
14,> 140 °C (dec.),O=c1ncc2cnc(Nc3ccc(N4CCC(CCN5CCOCC5)CC4)cc3)nc2n1C1CCCC1 [Example 39]
15,116.5 to 118.5 °C,"CCNc1nc(SC)ncc1CNc1cc(OC)cc(OC)c1Cl [Example 62, {5-[(2-Chloro-3,5-dimethoxy-phenylamino)-methyl]-2-methylsulfanyl-pyrimidin-4-yl}-ethyl-amine]"
16,215 to 216 °C,"COc1ccc(Cn2c(=O)c3cnc(Nc4ccc(N5CCN(C)CC5)cc4)nc3n(C(C)C)c2=O)cc1 [Example 71, 1-Isopropyl-3-(4-methoxybenzyl)-7-[4-(4-methylpiperazin-1-yl)phenylamino]-1H-pyrimido[4,5-d]pyrimidine-2,4-dione]"
17,198 to 204 °C,"COc1cc(OC)cc(N2Cc3cnc(SC)nc3N=C2N)c1 [Example 66, 3-(3,5-Dimethoxy-phenyl)-7-methylsulfanyl-3,4-dihydro-pyrimido [4,5-d]pyrimidin-2-ylamine]"
18,158 to 160 °C,"C=CCn1c(=O)c2cnc(-n3ccnc3)nc2n(C(C)C)c1=O [Example 68, 3-Allyl-7-(imidazol-1-yl)-1-isopropyl-1H-pyrimido [4,5-d]pyrimidine-2,4-dione]"
19,100 to 105 °C,"CCNc1nc(SC)ncc1C=Nc1cc(OC)cc(OC)c1 [Example 48a, {5-[(3,5-Dimethoxy-phenylimino)-methyl]-2-methylsulfanyl-pyrimidin-4-yl}-ethyl-amine]"
